The record followed here is ChEMBL document CHEMBL4482318, “Sepiapterin reductase inhibitors” (2018).

Structures are written as SMILES. Active and inactive are the calls of the source.

Common to all, as to type: functional, organism-based
Test [1] deals with Rattus norvegicus. The test can be described thus: Analgesic activity in rat model of spared nerve injury-induced neuropathic pain assessed as increase in paw withdrawal threshold at 10 mg/kg, po administered via gavage once daily for 3 days by Von frey filament test.
Test [2] has as its system Rattus norvegicus. The test can be described thus: Analgesic activity in rat model of chronic constriction injury-induced neuropathic pain assessed as increase in paw withdrawal threshold at 9.5 mg/kg, po administered via gavage once daily for 3 days by Von frey filament test.
Test [3] has as its system Rattus norvegicus. The test can be described thus: Analgesic activity in rat model of spared nerve injury-induced neuropathic pain assessed as increase in paw withdrawal threshold at 15 mg/kg, po administered via gavage once daily for 3 days by Von frey filament test.
Test [4] deals with Rattus norvegicus. The experiment in a line: Analgesic activity in rat model of spared nerve injury-induced neuropathic pain assessed as increase in paw withdrawal threshold at 20 mg/kg, po administered via gavage once daily for 3 days by Von frey filament test.
Test [5] concerns Rattus norvegicus. The experiment in a line: Analgesic activity in rat model of chronic constriction injury-induced neuropathic pain assessed as increase in paw withdrawal threshold at 10 mg/kg, po administered via gavage once daily for 3 days by Von frey filament test.

Turning to `Cc1c(C(=O)N2CCC2c2ccc(F)nc2)cnn1-c1nn2cccc2c(=O)[nH]1` (configuration not stated), the result in the test with Rattus norvegicus [1] was Active.

In the case of `Cc1c(C(=O)N2CCN(C3CC(F)(F)C3)CC2)cnn1-c1nn2cccc2c(=O)[nH]1`, the outcome in the test with Rattus norvegicus [2] was Active.

Turning to `Cc1c(C(=O)N2CCN(C3CC(F)(F)C3)CC2)nnn1-c1nn2cccc2c(=O)[nH]1`, the result in the test with Rattus norvegicus [2] was Active.

`Cc1c(C(=O)N2CC3CC(C2)N3C2CC2)cnn1-c1nn2cccc2c(=O)[nH]1`: in the test with Rattus norvegicus [3], the outcome was Active.

As to `Cc1c(C(=O)N2CCN(C3CCC3(F)F)CC2)nnn1-c1nn2cccc2c(=O)[nH]1` (configuration not stated), the result in the test on Rattus norvegicus [1] was Active.

As to `Cc1c(C(=O)N2CCC(c3nc(C#N)co3)CC2)cnn1-c1nn2cccc2c(=O)[nH]1`, in the test with Rattus norvegicus [4], the result was Active.

Consider `Cc1c(C(=O)N2CC(c3ccnc(F)c3)C2)cnn1-c1nn2cccc2c(=O)[nH]1`, for which the result with Rattus norvegicus [5] was Active.
